Results on 33 compounds are retold here after patent publication US20250177396A1, “POLO-LIKE KINASE 4 (PLK4) INHIBITORS, PHARMACEUTICAL COMPOSITIONS, METHODS OF PREPARATION AND USES THEREOF” (Repare Therapeutics Inc., priority 2022, published 2025).

Molecules are shown by their SMILES.

For this assay, the target named is T1, PLK4 (Homo sapiens, UniProt O00444).
T1 construct: expressed in transfected cells; host or cells: HEK293 T cells (ATCC CRL-3216)
T1 sequence (O00444 1-970): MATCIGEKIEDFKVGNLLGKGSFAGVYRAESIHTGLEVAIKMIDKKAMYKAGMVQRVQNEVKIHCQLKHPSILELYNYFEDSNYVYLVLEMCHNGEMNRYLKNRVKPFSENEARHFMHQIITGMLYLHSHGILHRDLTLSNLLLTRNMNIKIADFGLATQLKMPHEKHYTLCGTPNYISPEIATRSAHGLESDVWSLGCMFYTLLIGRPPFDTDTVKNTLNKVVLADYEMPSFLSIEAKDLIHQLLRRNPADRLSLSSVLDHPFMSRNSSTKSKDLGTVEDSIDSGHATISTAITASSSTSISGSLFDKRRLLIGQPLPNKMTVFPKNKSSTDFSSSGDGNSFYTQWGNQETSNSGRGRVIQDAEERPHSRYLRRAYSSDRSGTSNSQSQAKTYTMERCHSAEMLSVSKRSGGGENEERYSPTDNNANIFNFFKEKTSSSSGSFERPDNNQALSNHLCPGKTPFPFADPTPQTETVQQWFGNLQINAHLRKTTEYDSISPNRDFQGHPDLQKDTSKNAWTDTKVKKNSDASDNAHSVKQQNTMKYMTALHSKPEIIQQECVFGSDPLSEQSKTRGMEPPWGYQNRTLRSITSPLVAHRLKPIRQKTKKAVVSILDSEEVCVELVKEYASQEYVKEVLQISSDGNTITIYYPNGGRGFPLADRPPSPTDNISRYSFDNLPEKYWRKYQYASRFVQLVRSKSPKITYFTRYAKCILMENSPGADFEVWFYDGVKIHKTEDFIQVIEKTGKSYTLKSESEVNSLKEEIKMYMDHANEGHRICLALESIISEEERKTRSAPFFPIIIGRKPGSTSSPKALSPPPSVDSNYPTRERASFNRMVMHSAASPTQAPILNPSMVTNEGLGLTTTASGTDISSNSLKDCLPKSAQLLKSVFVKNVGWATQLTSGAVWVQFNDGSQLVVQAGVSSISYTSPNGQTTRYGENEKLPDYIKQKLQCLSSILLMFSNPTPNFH
The experiment in a line: PLK4 NanoBRET target engagement assay. It is filed as binding. The note with it: HEK293 T cells transfected with PLK4 NanoLuc fusion vector; K-5 tracer; 2 hrs incubation. In short, it runs like this: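 HEK293T cells transiently expressing PLK4-NanoLuc, plated at 17000 cells/well with K-5 tracer and compound, incubated 2 h at 37 °C/5% CO2. After substrate/inhibitor mix, 610/450 nm emission ratio ×1000 gave mBRET; IC50 from 4-parameter fit.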
For orientation: In BRET a luciferase serves as donor, and the signal depends on an acceptor being close.
As usually defined, the IC50 is the concentration that gives 50% inhibition. A higher IC50 goes with weaker potency. Regarding `Cc1cc(Nc2nc(N(C)c3c(F)cc(S(C)(=O)=O)cc3F)nc(-c3cnn4cccnc34)c2C2CC2)n[nH]1` [Compound 326], the IC50 came to 9 nM. Turning to `CN(c1nc(Nc2cc(C3CC3)[nH]n2)c(C2CC2)c(-c2cn(C)c(C#N)n2)n1)c1c(F)cc(S(C)(=O)=O)cc1F` [Compound 287, 4-(5-cyclopropyl-6-((5-cyclopropyl-1H-pyrazol-3-yl)amino)-2-((2,6-difluoro-4-(methylsulfonyl)phenyl)(methyl)amino)pyrimidin-4-yl)-1-methyl-1H-imidazole-2-carbonitrile], 6 nM corresponded to half-maximal inhibition (IC50). In turn, `COc1c(Nc2cc(C)[nH]n2)nc(Oc2ccc(S(C)(=O)=O)cc2Cl)nc1-c1cnn(C)c1` [Compound 34] registered an IC50 of 900 nM. In the case of `Cc1cc(Nc2nc(N(C)c3c(F)cc(S(C)(=O)=O)cc3F)nc(-c3cncn3C)c2C2CC2)n[nH]1` [Compound 134], the midpoint of inhibition, the IC50, lay at 7 nM. `Cc1cc(Nc2nc(N(C)c3c(F)cc(S(C)(=O)=O)cc3F)nc(-c3cn(C(C)C)cn3)c2C2CC2)n[nH]1` [Compound 137] yielded an IC50 of 3 nM. In turn, `Cc1cc(Nc2nc(N(C)c3c(F)cc(S(C)(=O)=O)cc3F)nc(-c3ncnn3C)c2C2CC2)n[nH]1` [Compound 216] had a half-maximal inhibitory concentration (IC50) of 190 nM. `Cc1cc(Nc2nc(N(C)c3ccc(S(C)(=O)=O)cc3F)nc(-c3cnn4cccnc34)c2C2CC2)n[nH]1` [Compound 108, 5-cyclopropyl-N^2-(2-fluoro-4-(methylsulfonyl)phenyl)-N^2-methyl-N^4-(5-methyl-1H-pyrazol-3-yl)-6-(pyrazolo[1,5-a]pyrimidin-3-yl)pyrimidine-2,4-diamine] displayed a 50% inhibitory concentration (IC50) of 16 nM. For the compound `Cc1cc(Nc2nc(N(C)c3c(F)cc(S(C)(=O)=O)cc3F)nc(-c3cn(C(F)F)cn3)c2C2CC2)n[nH]1` [Compound 128], the midpoint of inhibition, the IC50, lay at 6 nM.

Compound `CN(c1nc(Nc2cc(C#N)[nH]n2)c(C2CC2)c(-c2cnn(C)c2)n1)c1c(F)cc(S(C)(=O)=O)cc1F` [Compound 295] yielded an IC50 of 75 nM. Regarding `Cc1cc(Nc2nc(N(C)c3ccc(S(C)(=O)=O)cc3F)nc(-c3ccn(C)n3)c2C2CC2)n[nH]1` [Compound 12, 5-cyclopropyl-N^2-(2-fluoro-4-(methylsulfonyl)phenyl)-N^2-methyl-6-(1-methyl-1H-pyrazol-3-yl)-N^4-(5-methyl-1H-pyrazol-3-yl)pyrimidine-2,4-diamine], the midpoint of inhibition, the IC50, lay at 16 nM.

Compound `Cc1cc(Nc2nc(N(C)c3ccc(S(C)(=O)=O)cc3F)nc(-n3cncn3)c2C2CC2)n[nH]1` [Compound 105] yielded an IC50 of 740 nM.

`Cc1cc(Nc2nc(Sc3ccc(S(C)(=O)=O)cc3F)cc(-c3cnn(C)c3)c2C2CC2)n[nH]1` [Compound 94]: it took 110 nM to reach half-maximal inhibition (IC50). Turning to `Cc1cc(Nc2nc(N(C)c3c(F)cc(S(C)(=O)=O)cc3F)nc(N3CCO[C@H](C(F)(F)F)C3)c2C2CC2)n[nH]1` [Compound 299], the IC50 stood at 180 nM. The figure for `Cc1cc(Nc2nc(N(C)c3c(F)cc(S(C)(=O)=O)cc3F)nc(-c3cnn(C)c3C(N)=O)c2C2CC2)n[nH]1` [Compound 231] is 4 nM; for `Cc1cc(Nc2nc(N(C)c3c(F)cc(S(C)(=O)=O)cc3F)nc(-c3cn4c(n3)C(O)CC4)c2C2CC2)n[nH]1` (stereo not drawn) [Compound 234] it is 49 nM; for `Cc1cc(Nc2nc(N(C)c3c(F)cc(S(C)(=O)=O)cc3F)nc(-c3cn(C)c(C(C)O)n3)c2C2CC2)n[nH]1` (stereo not drawn) [Compound 217] it is 19 nM. With `Cc1cc(Nc2nc(N(C)c3c(F)cc(S(C)(=O)=O)cc3F)nc(-c3cnn(C)c3C(=O)N3CC(F)(F)C3)c2C2CC2)n[nH]1` [Compound 264], the IC50 is 25 nM. In the case of `Cc1cc(Nc2nc(N(C)c3c(F)cc(S(C)(=O)=O)cc3F)nc(-c3cnc(C)o3)c2C2CC2)n[nH]1` [Compound 156], the IC50 is 11 nM. `Cc1cc(Nc2nc(N(C)c3c(F)cc(S(C)(=O)=O)cc3F)nc(-n3ccccc3=O)c2C2CC2)n[nH]1` [Compound 235] displayed an IC50 of 1100 nM. `Cc1cc(Nc2nc(N(C)c3c(F)cc(C4(C#N)CC4)cc3F)nc(-c3cn(C)cn3)c2C2CC2)n[nH]1` [Compound 362] displayed an IC50 of 4 nM. For `COc1c(Nc2cc(C)[nH]n2)nc(N(C)c2ccc([S+](C)[O-])cc2)nc1-c1cnn(C)c1` (stereo not drawn) [Compound 79], the IC50 turned out to be 2300 nM. Compound `CN(c1nc(Nc2cc(C3CC3)[nH]n2)c(C2CC2)c(-c2cnn(C)c2C(N)=O)n1)c1c(F)cc(S(C)(=O)=O)cc1F` [Compound 256] yielded an IC50 of 4 nM. With `COc1c(Nc2cc(C)[nH]n2)nc(Oc2ccc(Br)c(C#N)c2)nc1-c1cnn(C)c1` [Compound 36], half-maximal inhibition (IC50) was put at 7000 nM. With `[2H]C([2H])([2H])N(C([2H])([2H])[2H])S(=O)(=O)c1ccc(N(C)c2nc(Nc3cc(C)[nH]n3)c(C3CC3)c(-c3cnn(C)c3)n2)c(F)c1` [Compound 26], inhibition was half-maximal at 5 nM (IC50). Regarding `Cc1cc(Nc2nc(N(C)c3ccc(S(=O)(=O)C(C)C)cc3)nc(-c3cnn(C)c3)c2C2CC2)n[nH]1` [Compound 81], the IC50 amounted to 73 nM. `CN(c1nc(Nc2cc(C3CC3)[nH]n2)c(C2CC2)c(-c2ccnn2C2CC2)n1)c1c(F)cc(S(C)(=O)=O)cc1F` [Compound 331] came in with an IC50 of 14 nM. `Cc1cc(Nc2nc(N(C)c3c(F)cc(S(C)(=O)=O)cc3F)nc(-c3cc4[nH]c(=O)ccn4n3)c2C2CC2)n[nH]1` [Compound 286] yielded an IC50 of 24 nM. Next, `COc1c(Nc2cc(C)[nH]n2)nc(N(C)c2ccc(Br)cc2F)nc1-c1cnn(C)c1` [Compound 75]: 600 nM; `COC(=O)CN(c1nc(Nc2cc(C)[nH]n2)c(OC)c(-c2cnn(C)c2)n1)c1ccc(S(C)(=O)=O)cc1F` [Compound 90]: 370 nM.

`CC(=O)N1CCC(c2cc(F)c(N(C)c3nc(Nc4cc(C)[nH]n4)c(C4CC4)c(-c4cn(C)cn4)n3)c(F)c2)CC1` [Compound 349] registered a 50% inhibitory concentration (IC50) of 46 nM. On to `Cc1cc(Nc2nc(N(C)c3c(F)cc(C(=O)N4CCOCC4)cc3F)nc(-c3cn(C)cn3)c2C2CC2)n[nH]1` [Compound 356], for which the midpoint of inhibition, the IC50, lay at 260 nM. Regarding `Cc1cc(Nc2nc(N(C)c3c(F)cc(S(C)(=O)=O)cc3F)nc(-c3cnn(CC(C)(C)O)c3)c2C2CC2)n[nH]1` [Compound 213], the half-maximal inhibitory concentration (IC50) turned out to be 6 nM. Take `COCc1cc(Nc2nc(N(C)c3c(F)cc(S(C)(=O)=O)cc3F)nc(-c3cnn(C)c3)c2C2CC2)n[nH]1` [Compound 341]: the IC50 is 420 nM.
